From US20220264878A1, “HERBICIDAL COMPOSITION CONTAINING R-TYPE PYRIDYLOXY CARBOXYLIC ACID DERIVATIVE AND USE THEREOF” (Qingdao Kingagroot Chemical Compound Co., Ltd., priority 2019, published 2022)

Tests used:
Assay type in all cases: in vivo
[1] = system: Chenopodium album; experiment: Post-emergence foliage spray, pot culture, fresh weight inhibition (Tables 1-48, 51-98, 101-148; 24 days); conditions: Table 96
In short: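 Pot-grown weeds were thinned to 15 per pot (45 per treatment) and sprayed on foliage at the 5–6-leaf stage for grasses or the 6–7-leaf stage for broadleaves. Agents were dissolved in acetone with 0.1% Tween-80 and applied at 450 kg/ha spray volume and 0.3 MPa. Plants were then kept in a greenhouse. Above-ground fresh weight of survivors, with dead plants counted as zero, gave inhibition versus a solvent/emulsifier blank.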

[2] = system: Amaranthus retroflexus; experiment: as above
In short: (§1)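 Greenhouse pot plants (20–30 °C, natural light, 57–72% RH) were sprayed once on foliage at 450 kg/ha and 0.3 MPa, at the 5–6-leaf (grass) or 6–7-leaf (broadleaf) stage. Compounds were in acetone diluted with 0.1% Tween-80 water. Surviving shoots were weighed at 24 days; dead plants counted as zero.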

[3] = system: Acalypha australis; experiment: as above
In short: as §1

[4] = system: Echinochloa oryzoides; experiment: Soil sealing treatment, pot culture, fresh weight inhibition (Tables 149, 150)
Procedure: (§2) A method for investigating absolute number was employed, wherein whole seedlings of survival weeds were cut off with a blade along the soil surface, and the fresh weight of the weeds was weighed with an analytical balance. For dead weeds, the fresh weight thereof was zero.
(§3) Theoretical fresh weight inhibition rate of a combination of two active ingredients in each group was calculated by the Gowing method (E0=X+Y−X*Y/100), and then compared with an actually measured inhibition rate (E), thereby effect of the combination (hereafter referred to as combined effect) on weeds was evaluated: the value of E-E0, which was greater than 10%, corresponded to a synergistic effect, the value of E-E0, which was less than −10%, corresponded to an antagonistic effect, and the value of E-E0, which was from −10% to 10%, corresponded to an additional effect. […] Wherein, in the formula, X represented the fresh weight inhibition rate of the active ingredient A in a dosage of P, and Y represented the fresh weight inhibition rate of the active ingredient B in a dosage of Q.
(§4) Echinochloa crusgalli var zelayensis were collected in Huai'an of Jiangsu Province; Echinochloa caudate were collected in Pingluo of Ningxia Province; Echinochloa oryzoides were collected in Qiqiha'er of Heilongjiang Province.
(§5) The culture was carried out in a controllable sunlight greenhouse at 20 to 30° C., in natural light, and relative humidity of 57% to 72%. […] The test soil was placed quantitatively to ¾ of the pots and then watered from the bottom of the pots to completely wet the soil to saturation. The pretreated test weed seeds were uniformly sowed on the surface, then covered with 0.5-2 cm soil according to the seed size, and ready-for use 24 hours after sowing.
(§6) The technical materials were all dissolved in acetone, and diluted with an aqueous solution containing 0.1% emulsifier T-80. The dilution is performed as required.
(§7) A ratio of A to the active ingredient B and amounts thereof in each group depends on the characteristics and toxicity of the two agents, as well as the main application purpose of a corresponding formulation. Based on the pre-tests in this study, the dosage of A and the active ingredient B applied alone and in combination were shown in the tables. Water containing the solvent and emulsifier same with the above groups but free of the agents was used as a blank control.
(§8) 3 pots with 30 weed seeds per pot were treated in one treatment with 4 replications per treatment.
(§9) The pots which were sowed and mulched were evenly placed on a platform with an area of 0.5 m^2, and a solution of agents was sprayed on soil surface thereof by the 3WP-2000-type walking spray tower at a dosage of […] and at a spray pressure of 0.3 MPa. After all the solution was sprayed, the valve was closed. After 30 seconds, the door of the spray tower was opened, and the nutritional bowl was taken out. Then the valve was opened, and the spray tube was cleaned by spraying 50 ml of water.
(§10) This section was same as the section 4) in the post-emergence treatment by performing foliage spray, and was not repeated herein.

[5] = system: Echinochloa caudate; experiment: Soil sealing treatment, pot culture, fresh weight inhibition (Tables 99, 100)
Procedure: as §2, §3, §4, §5, §6, §7, §8, §9, §10

[6] = system: Echinochloa crusgalli var. zelayensis; experiment: Soil sealing treatment, pot culture, fresh weight inhibition (Tables 49, 50)
Procedure: as §2, §3, §4, §5, §6, §7, §8, §9, §10

Structure (SMILES): C#CCN1C(=O)COc2cc(F)c(N3C(=O)C4=C(CCCC4)C3=O)cc21 [flumioxazin]
- Control effect (%) of B applied alone in corresponding dose ([1]; 7.5 g a.i./ha): 3.4%
- Control effect (%) of B applied alone in corresponding dose ([1]; 15 g a.i./ha): 12.8%
- Control effect (%) of B applied alone in corresponding dose ([1]; 30 g a.i./ha): 37.3%
- Control effect (%) of B applied alone in corresponding dose ([1]; 60 g a.i./ha): 78.8%
- Control effect (%) of B applied alone in corresponding dose ([2]; flumioxazin 7.5 g a.i./ha): 5.5%
- Control effect (%) of B applied alone in corresponding dose ([2]; flumioxazin 15 g a.i./ha): 12.4%
- Control effect (%) of B applied alone in corresponding dose ([2]; flumioxazin 30 g a.i./ha): 37.4%
- Control effect (%) of B applied alone in corresponding dose ([2]; flumioxazin 60 g a.i./ha): 78.9%
- Control effect (%) of B applied alone in corresponding dose ([3]; B 7.5 g a.i./ha): 6.9%
- Control effect (%) of B applied alone in corresponding dose ([3]; B 15 g a.i./ha): 13.7%
- Control effect (%) of B applied alone in corresponding dose ([3]; B 30 g a.i./ha): 39.0%
- Control effect (%) of B applied alone in corresponding dose ([3]; B 60 g a.i./ha): 79.3%

Structure (SMILES): C#CCOc1cc(-n2nc(C(C)(C)C)oc2=O)c(Cl)cc1Cl [oxadiargyl]
- Control effect (%) of B applied alone in corresponding dose ([4]; B 7.5 g a.i./ha): 2.6%
- Control effect (%) of B applied alone in corresponding dose ([4]; B 15 g a.i./ha): 12.7%
- Control effect (%) of B applied alone in corresponding dose ([4]; B 30 g a.i./ha): 41.6%
- Control effect (%) of B applied alone in corresponding dose ([4]; B 60 g a.i./ha): 63.3%
- Control effect (%) of B applied alone in corresponding dose ([5]; Table 100, 7.5 g a.i./ha): 1.7%
- Control effect (%) of B applied alone in corresponding dose ([5]; Table 100, 15 g a.i./ha): 10.8%
- Control effect (%) of B applied alone in corresponding dose ([5]; Table 100, 30 g a.i./ha): 37.2%
- Control effect (%) of B applied alone in corresponding dose ([5]; Table 100, 60 g a.i./ha): 62.5%
- Control effect (%) of B applied alone in corresponding dose ([6]; oxadiargyl 7.5 g a.i./ha): 1.6%
- Control effect (%) of B applied alone in corresponding dose ([6]; oxadiargyl 15 g a.i./ha): 10.4%
- Control effect (%) of B applied alone in corresponding dose ([6]; oxadiargyl 30 g a.i./ha): 38.8%
- Control effect (%) of B applied alone in corresponding dose ([6]; oxadiargyl 60 g a.i./ha): 63.5%

Structure (SMILES): CC(C)Oc1cc(-n2nc(C(C)(C)C)oc2=O)c(Cl)cc1Cl [oxadiazon]
- Control effect (%) of B applied alone in corresponding dose ([4]; B 37.5 g a.i./ha): 5.1%
- Control effect (%) of B applied alone in corresponding dose ([4]; B 75 g a.i./ha): 10.3%
- Control effect (%) of B applied alone in corresponding dose ([4]; B 150 g a.i./ha): 39.7%
- Control effect (%) of B applied alone in corresponding dose ([4]; B 300 g a.i./ha): 50.8%
- Control effect (%) of B applied alone in corresponding dose ([5]; Table 99, 37.5 g a.i./ha): 6.0%
- Control effect (%) of B applied alone in corresponding dose ([5]; Table 99, 75 g a.i./ha): 22.1%
- Control effect (%) of B applied alone in corresponding dose ([5]; Table 99, 150 g a.i./ha): 39.5%
- Control effect (%) of B applied alone in corresponding dose ([5]; Table 99, 300 g a.i./ha): 63.0%
- Control effect (%) of B applied alone in corresponding dose ([6]; oxadiazon 37.5 g a.i./ha): 4.2%
- Control effect (%) of B applied alone in corresponding dose ([6]; oxadiazon 75 g a.i./ha): 25.4%
- Control effect (%) of B applied alone in corresponding dose ([6]; oxadiazon 150 g a.i./ha): 41.5%
- Control effect (%) of B applied alone in corresponding dose ([6]; oxadiazon 300 g a.i./ha): 64.2%
